According to patent publication US20090197922A1, “COMPOSITIONS AND METHODS FOR TREATING PULMONARY HYPERTENSION” (The University of Chicago, priority 2006, published 2009):
“Also recorded” adds a separate entry of the source.

Experiments:
[1] = Body weight of rats in hypoxia/SU5416 study; type: in vivo, rat; conditions: Dahl SS rats
Description: (§1) Fifteen Dahl Salt Sensitive strain rats were divided into 5 groups: normoxia+vehicle (normal, healthy control), hypoxia+vehicle (hypoxia control), hypoxia+SU5416 (positive control), hypoxia+sorafenib (safety comparison with SU5416), and hypoxia+sorafenib+SU5416 (therapeutic activity assessment). Echocardiograms were performed on all rats at the start of the experiment. Except for the normoxia group, all rats were maintained in a hypoxia chamber with a partial pressure of oxygen of 10% FiO2 for the duration of the experiment. Rats in the 2 SU5416 groups received one subcutaneous injection of SU5416 at the start of the experiment (20 mg/kg). Stock sorafenib solutions were prepared every three days, crushing and dissolving sorafenib tablets in EL/ethanol (50:50; Sigma Cremophor EL, 95% ethyl alcohol) at final concentration of 4 mg/mL, protected from light exposure and stored at room temperature. Final dosing solutions were prepared on the day of use by dilution of the stock solution to 1 mg/mL with water and administered by gavage to the rats daily. After 3 weeks, all rats had echocardiography and hemodynamic studies. Organ and blood specimens were obtained for further evaluation.

[2] = system: hypoxia-induced model of pulmonary hypertension in Dahl SS rats; assay: Hemodynamic study (pressures, RV/LV weights) in hypoxia/SU5416 model of pulmonary hypertension; type: in vivo, rat; conditions: for BP mmHg (+/−) SE / PA mmHg (+/−) SE / RVSP mmHg (+/−) SE: 3½ Wk hypoxia (10% FiO2), sorafenib daily 2.5 mg/Kg, SU5416 day zero 20 mg/kg, 2 experiments as one cohort; for development of pulmonary hypertension (right ventricular and pulmonary artery pressures, right ventricle/left ventricular weights): hypoxia 10% FiO2, 3 weeks, SU5416 20 mg/kg once, sorafenib by gavage daily
Description: As part of the spectrum of sorafenib's pharmacologic activity overlaps with SU5416, a study was performed to determine whether sorafenib had similar effects or with additional mechanisms of inhibitory activity could counteract the effects of SU5416. Dahl Salt Sensitive rats were divided into 5 groups: normoxia+vehicle (normal, healthy control), hypoxia+SU5416 (positive control), hypoxia+sorafenib (safety comparison with SU5416), and hypoxia+sorafenib+SU5416 (therapeutic activity assessment). Echocardiograms were performed on all rats at the start of the study. Except for the normoxia group, all rats were maintained in a hypoxia chamber with a partial pressure of oxygen of 10% FiO2 for the duration of the study. Rats in the two SU5416 groups received one subcutaneous injection of SU5416 at the start of the study (20 mg/kg). Stock sorafenib solutions were prepared every three days, crushing and dissolving sorafenib tablets in EL/ethanol (50:50; Sigma Cremophor EL, 95% ethyl alcohol) at final concentration of 4 mg/mL, protected from light exposure and stored at room temperature. Final dosing solutions were prepared on the day of use by dilution of the stock solution to 1 mg/mL with water and administered by gavage to the rats daily. […] Organ and blood specimens were obtained for further evaluation. […] RV 3DE measurements were also determined (diameters+area), A=RV major diameter, B=RV annulus diastolic diameter & area, C=RV at ⅓ RV major diameter & area, D=RV at ⅔ RV major diameter & area.
(§2) Protocol includes an initial administration of SU5416 subcutaneously at 20 mg/kg followed daily by sorenfenib oral daily doses of 2.5 mg/kg. Some animals were exposed to chronic hypoxia (10% O2). The animals were divided into five experimental groups: hypoxia+sorafenib; hypoxia+SU5416+sorafenib, normoxia+vehicle control; Hypoxia+vehicle; and hypoxia+SU5416. PAP, RVSP, Echo, and DNA microarrays were used to measure various physiological and molecular biological parameters. FIG. 4 illustrates that hypoxia/SU5416-induces increases in right heart pressures and right heart hypertrophy (RV/LV+Septum).
as §1, with “After 3 weeks, all rats had echocardiography and hemodynamic studies.” left out

[3] = system: hypoxia-induced model of pulmonary hypertension in Dahl SS rats; conditions: previously demonstrated; cited from earlier work
[4] = system: hypoxia-induced model of pulmonary hypertension in Dahl SS rats; assay: Echocardiography in hypoxia/SU5416 model of pulmonary hypertension; type: in vivo, rat; design: CO (PA): unit not given beside the values; RVAW / LVPW / CO (Ao) / MPA: unit not given here; conditions: echocardiogram
Description: As part of the spectrum of sorafenib's pharmacologic activity overlaps with SU5416, a study was performed to determine whether sorafenib had similar effects or with additional mechanisms of inhibitory activity could counteract the effects of SU5416. […] Echocardiograms were performed on all rats at the start of the study. Except for the normoxia group, all rats were maintained in a hypoxia chamber with a partial pressure of oxygen of 10% FiO2 for the duration of the study. Rats in the two SU5416 groups received one subcutaneous injection of SU5416 at the start of the study (20 mg/kg). Stock sorafenib solutions were prepared every three days, crushing and dissolving sorafenib tablets in EL/ethanol (50:50; Sigma Cremophor EL, 95% ethyl alcohol) at final concentration of 4 mg/mL, protected from light exposure and stored at room temperature. Final dosing solutions were prepared on the day of use by dilution of the stock solution to 1 mg/mL with water and administered by gavage to the rats daily. After 3 weeks, all rats had echocardiography and hemodynamic studies. Organ and blood specimens were obtained for further evaluation. […] RV 3DE measurements were also determined (diameters+area), A=RV major diameter, B=RV annulus diastolic diameter & area, C=RV at ⅓ RV major diameter & area, D=RV at ⅔ RV major diameter & area.
as §1, with “Echocardiograms” for “Fifteen Dahl Salt Sensitive strain rats were divided into 5 groups: normoxia+vehicle (normal, healthy control), hypoxia+vehicle (hypoxia control), hypoxia+SU5416 (positive control), hypoxia+sorafenib (safety comparison with SU5416), and hypoxia+sorafenib+SU5416 (therapeutic activity assessment). Echocardiograms”

[5] = cited from earlier work
rat lung tissue = assay: Expression profiling of rat lung tissue RNA (Rat Chip II, Affymetrix); type: in vivo; conditions: compared to normoxia; GCRMA normalization, SAM (δ>0.639, minimum fold change>1.7)
Excerpt: To study potential mechanisms of sorafenib effects on PH RNA was isolated from rat lung tissue and analyzed using the Rat Chip II (Affymetrix). […] Mechanisms of PAH pathobiology is poorly understood therefore, to explore potential mechanistic pathways the inventors conducted bioinformatic studies and expression profiling. […] The candidate genes identified fell into various gene ontology classes, for example 4% were in the lung development and growth factors class (e.g., Bambi, Tgfb3, Ltbp2), 13% in the cell migration/ECM class (e.g., Itga3_predicted, Cspg4, Cxcll2, Reln, Col18a1, Cthrc1, Hmgcr, Cnn1, Col6a2, Jag2), 4% in the apoptosis class (e.g., Anzal, Col18a1, Jag2), 4% in the smooth muscle/fiber formation class (e.g., Des, Tpm3, Jph2), 10% in the cell proliferation class (e.g., Anxal, Timp1, Lamb—1 predicted, Cspg4, Cxcll2, Gja4, Jag2, Tgfb3), 6% in the blood vessel development class (e.g., Cxcll2, Cspg4, Gja4, Col18a1, Serpine1), and 5% in the angiogenesis class (Cxcl12, Cspg4, Col18a1, Serpine1).

rat lung vasculature = assay: Rat lung histopathology (H&E sections, Heath-Edwards grading); type: in vivo; conditions: Dahl SS rats, Hypoxia+SU5416+Sorafenib vs Hypoxia+SU5416, H/E sections
Description: The Heath-Edwards grading system grades pulmonary hypertension by microscopic features. The general classification is as follows:
as §2

[6] = room temperature and neutral pH; cited from earlier work
[7] = Wade et al., 2004; cited from earlier work
PAH patients = conditions: case report, combination therapy with imatinib at 3 and 6 months; cited from earlier work
[8] = PRE (baseline at start of experiment)

| SMILES | Wt ([1]; POST (after 3 weeks hypoxia)) [g] | Wt [1, 8] [g] | BP mmHg (+/−) SE [2] | PA mmHg (+/−) SE [2] | RVSP mmHg (+/−) SE [2] | development of pulmonary hypertension (right ventricular and pulmonary artery pressures, right ventricle/left ventricular weights) [2] | CI (Ao) ([4]; POST (after 3 weeks hypoxia)) | CI(PA) ([4]; POST (after 3 weeks hypoxia)) | CO (Ao) ([4]; POST (after 3 weeks hypoxia)) | CO (PA) ([4]; POST (after 3 weeks hypoxia)) | FS (%) ([4]; POST (after 3 weeks hypoxia)) | LV Mass (gram) ([4]; POST (after 3 weeks hypoxia)) | LVPW ([4]; POST (after 3 weeks hypoxia)) | MPA ([4]; POST (after 3 weeks hypoxia)) | PA PG (mmHg) ([4]; POST (after 3 weeks hypoxia)) | TV max PG (mmHg) ([4]; POST (after 3 weeks hypoxia)) | CI (Ao) [4, 8] | CI(PA) [4, 8] | CO (Ao) [4, 8] | CO (PA) [4, 8] | other results |
| --- | --- | --- | --- | --- | --- | --- | --- | --- | --- | --- | --- | --- | --- | --- | --- | --- | --- | --- | --- | --- | --- |
| Cc1cc(C)c(/C=C2\C(=O)Nc3ccccc32)[nH]1 [SU5416] | 324 ± 22 | 328 ± 11 | 78 +/− 4 mmHg | 33 +/− 3 mmHg | 30 +/− 4 mmHg | developed pulmonary hypertension | 0.82 ± 0.22 | 0.87 ± 0.14 | 261 ± 55 | 279 ± 69 | 63 ± 4 | 1.25 ± 0.33 | 0.16 ± 0.02 | 0.41 ± 0.05 | 2.05 ± 0.92 | 5.63 ± 4.07 | 0.95 ± 0.06 | 1.21 ± 0.26 | 310 ± 10 | 400 ± 99 | effect on pulmonary hypertension in hypoxic rats (previous reports) [3]: exacerbate pulmonary hypertension; RVAW ([4]; POST (after 3 weeks hypoxia)): 0.16 ± 0.03; FS (%) [4, 8]: 71 ± 11%; LV Mass (gram) [4, 8]: 1.30 ± 0.14 gram; LVPW [4, 8]: 0.16 ± 0.04; MPA [4, 8]: 0.45 ± 0.01; PA PG (mmHg) [4, 8]: 3.65 ± 2.76 mmHg; RVAW [4, 8]: 0.07 |
| CNC(=O)c1cc(Oc2ccc(NC(=O)Nc3ccc(Cl)c(C(F)(F)F)c3)cc2)ccn1 [Sorafenib] | 331 ± 15 | 328 ± 10 | 97 +/− 4 mmHg | 18 +/− 2 mmHg | 17 +/− 2 mmHg | attenuated physiologic and histopathologic changes in PAH; also recorded: protect SU5416-treated hypoxia-exposed rats from pulmonary arterial hypertension | 1.00 ± 0.80 | 0.82 ± 0.17 | 326 ± 246 | 271 ± 48 | 68 ± 20 | 1.30 ± 0.10 | 0.18 ± 0.03 | 0.38 ± 0.07 | 3.87 ± 0.95 | 4.85 ± 3.46 | 1.77 ± 1.30 | 1.70 ± 1.43 | 577 ± 418 | 551 ± 467 | development of pulmonary hypertension (right ventricular and pulmonary artery pressures, right ventricle/left ventricular weights) ([2]; listed as sorafenib): prevents hypoxia+SU5416 induced pulmonary hypertension and remodeling; also recorded: no significant change in pressures or weights; also recorded: does not exacerbate hypoxia-induced hypertension; development of pulmonary hypertension (right ventricular and pulmonary artery pressures, right ventricle/left ventricular weights) ([2]; listed as sorefenib): did not develop evidence of PAH; right heart hypertrophy (RV/LV+Septum) ([2]; hypoxia+SU5416, sorafenib oral daily 2.5 mg/kg): prevented hypoxia+SU5416 development of right heart hypertrophy; MTD ([5]; known MTD, oral): 400 mg twice daily; drug interactions with warfarin or digoxin ([5]; previous sorafenib studies): have not demonstrated known drug interactions; FS (%) [4, 8]: 78 ± 5%; LV Mass (gram) [4, 8]: 1.60 ± 0.30 gram; LVPW [4, 8]: 0.21 ± 0.03; MPA [4, 8]: 0.48 ± 0.07; PA PG (mmHg) [4, 8]: 6.10 ± 5.52 mmHg; RVAW [4, 8]: 0.11; genes differentially regulated (rat lung tissue): at least 179 genes; remodeling of the lung vasculature (histopathology, Heath-Edwards grading) (rat lung vasculature): Prevents Remodeling; remodeling of the lung vasculature (histopathology, Heath-Edwards grading) (rat lung vasculature; listed as sorafenib): dramatic improvement |
| CCCCC[C@H](O)CC[C@@H]1[C@H]2Cc3cccc(OCC(=O)O)c3C[C@H]2C[C@H]1O [Treprostinil] |  |  |  |  |  |  |  |  |  |  |  |  |  |  |  |  |  |  |  |  | chemical stability [6]: chemically stable at room temperature and neutral pH; half-life [7]: 3 to 4 h |
| Cc1ccc(NC(=O)c2ccc(CN3CCN(C)CC3)cc2)cc1Nc1nccc(-c2cccnc2)n1 [imatinib] |  |  |  |  |  |  |  |  |  |  |  |  |  |  |  |  |  |  |  |  | improvement in 6MW (PAH patients): 60% |
